What is called melting point is the temperature of the solid-liquid transition.

Molecules are shown by their SMILES.

`Cc1nc(N)nc2c1CCCC2` showed a melting point of 181 to 185 °C.

`COc1cccc(-c2nc(CC(=O)O)cs2)c1OC` had a melting point of 156 to 158 °C.

Molecule `Cc1occc1-c1nnc(S)n1-c1ccccc1` displayed a melting point of 234 to 236 °C.

As for `CCOc1ccc(C(C)=O)cc1CN1CCCCC1`, the melting point was 33 to 37 °C.

Take `O=C(O)c1ccc2ccc(Cl)cc2n1`: the melting point lay within 179 to 181 °C.

Molecule `O=C(c1nc2ccccc2s1)C(F)(F)F` showed a melting point of 83 to 85 °C.

As to `Cc1csc(SCc2ccccc2C(=O)O)n1`, the melting point lay within 159 to 162 °C.

Turning to `O=[N+]([O-])c1cc(I)ccc1Cl`, the melting point is 71 to 73 °C.

`CC(C)(C(=O)O)C1CCCCC1` came in with a melting point of 64 to 66 °C.

As for `O=Cc1ccc(N2CCCCC2)s1`, the melting point is 73 to 75 °C.

`CCOc1ccc(-n2ncc(C(=O)O)c2C)nn1` had a melting point of 227 to 229 °C.

The molecule `O=C1NC(=O)C2(CCNCC2)N1` had a melting point of 240 to 250 °C.

The molecule `C[C@H](NC(=O)C1CCCCC1)C(=O)O` registered a melting point of 127 to 129 °C.

`Cc1cccc(C2(C(=O)O)CC2)c1` came in with a melting point of 107 to 109 °C.

`COC(=O)CC(=O)c1ccncc1`: the melting point was in the range of 70 to 72 °C.

`O=C(O)CCNS(=O)(=O)c1ccc2c(c1)CCCC2`: the melting point lay in the range of 106 to 110 °C.

With `CN(C)C(=O)Sc1cnc2nc(C#N)c(C#N)n2c1`, the melting point fell in the range of 180 to 182 °C.

In turn, `N#Cc1cccc(OCc2cccc(C(=O)O)c2)c1` registered a melting point of 179 to 181 °C.

Molecule `O=C(O)Cc1csc(NC(=O)c2ccco2)n1` yielded a melting point of 223 to 225 °C.

In turn, `Cc1nn(CC(=O)O)c(C)c1[N+](=O)[O-]` showed a melting point of 179 to 181 °C.

The molecule `CN1CCN(C(N)=O)C(c2ccccc2)C1` (configuration not stated) had a melting point of 94 to 96 °C.

As to `NC(=O)CNS(=O)(=O)c1ccc(F)c(C(=O)O)c1`, the melting point lay within 201 to 203 °C.

In the case of `CN(C)C(C(=O)O)c1cccnc1` (configuration not stated), the melting point fell in the range of 184 to 186 °C.

`Nc1ccc(CC(=O)Nc2ccccc2F)cc1` returned a melting point of 110 to 112 °C.

In the case of `CS(=O)(=O)CCS(N)(=O)=O`, the melting point is 149 to 151 °C.

With `CNc1nc(N)n[nH]1`, the melting point lay in the range of 158 to 160 °C.

The molecule `COc1ncccc1O` displayed a melting point of 64 to 66 °C.

`CCCN1C(=O)C(=O)c2cc(Br)ccc21` registered a melting point of 129 to 131 °C.

`Nc1c(Cl)cc(Br)cc1C(=O)O`: the melting point lay within 233 to 235 °C.

Turning to `Cc1ccc(C)c(N2C(=O)C=CC2=O)c1`, the melting point was 79 to 81 °C.

Regarding `CS(=O)(=O)Nc1cccc2c1CCCN2`, the melting point lay within 117 to 119 °C.

With `O=[N+]([O-])c1n[nH]cc1Br`, the melting point is 193 to 195 °C.

In turn, `O=C1C=CC(=O)N1CCc1ccccc1` registered a melting point of 109 to 111 °C.

Take `CC(=O)c1cc(C)cc(C(C)=O)c1O`: the melting point lay in the range of 50 to 52 °C.

For the molecule `COc1cccc(OC)c1CC(=O)O`, the melting point fell in the range of 149 to 151 °C.

`CCCOc1nc(C(=O)O)cc2ccccc12` gave a melting point of 159 to 161 °C.

Turning to `O=Cc1c(OCC(=O)O)ccc2ccccc12`, the melting point lay within 174 to 176 °C.

Take `Cc1ccc(-c2nn(Cc3ccccc3)cc2C(=O)O)cc1C`: the melting point lay within 155 to 157 °C.

In turn, `CC(C)(C)OC(=O)NC(CN)c1ccccc1` (configuration not stated) registered a melting point of 65 to 67 °C.

`NC(=NO)c1ccc(CN2CCOCC2)cc1` yielded a melting point of 158 to 160 °C.

With `COc1ccc(-n2cc(O)c(C(=O)O)n2)cc1`, the melting point was 234 to 236 °C.

`NCc1ccc(N2CCCC(C(N)=O)C2)cc1` (configuration not stated) showed a melting point of 169 to 171 °C.

For the molecule `O=C(O)c1ccc(NS(=O)(=O)c2cccs2)cc1`, the melting point lay within 226 to 228 °C.

The molecule `O=C(NC1CCC(O)CC1)C(F)(F)F` (configuration not stated) registered a melting point of 186 to 188 °C.

With `COC(=O)C(=O)CC(=O)c1ccc(OC)cc1F`, the melting point lay in the range of 101 to 103 °C.

Turning to `Nc1ncc(Cc2cccc(C(F)(F)F)c2)s1`, the melting point is 73 to 77 °C.

The molecule `Cc1ccc(C(N)Cn2ccnc2)c(C)c1` (configuration not stated) had a melting point of 79 to 81 °C.

Molecule `CCOC(=O)C(N)c1cccc(O)c1` (configuration not stated) returned a melting point of 148 to 150 °C.

As to `CN(c1ccc(O)cc1)S(=O)(=O)c1ccccc1F`, the melting point lay within 100 to 102 °C.

In turn, `NS(=O)(=O)c1ccc([N+](=O)[O-])s1` displayed a melting point of 139 to 141 °C.

Molecule `N#Cc1cccc(S(=O)(=O)n2ccc(N)n2)c1` gave a melting point of 183 to 185 °C.

Turning to `O=C(O)c1cc([N+](=O)[O-])ccc1Oc1ccccc1`, the melting point is 167 to 169 °C.

In the case of `CCOC(=O)c1csc(CC#N)n1`, the melting point was 77 to 79 °C.

For the molecule `N#CCS(=O)(=O)c1ccc(C(=O)O)cc1`, the melting point lay within 236 to 238 °C.

Turning to `N=C1NCCO1`, the melting point lay within 69 to 71 °C.

Molecule `Nc1ccc(Oc2ccc(C(F)(F)F)cc2)nc1` showed a melting point of 116 to 118 °C.

Molecule `O=C(O)c1cn(-c2ccccc2)nc1-c1cccc2ccccc12` gave a melting point of 186 to 188 °C.

In turn, `COc1cc(F)c(F)cc1[N+](=O)[O-]` gave a melting point of 54 to 56 °C.

The molecule `C=CC(=O)NCc1ccc(C(=O)O)cc1` displayed a melting point of 197 to 199 °C.

The molecule `CCCC1(C)NC(=O)NC1=O` (configuration not stated) came in with a melting point of 123 to 125 °C.

Turning to `NC(=O)C1(c2cccc(Cl)c2)CC1`, the melting point was 99 to 101 °C.

`CC(C#N)CNC(=O)OC(C)(C)C` (configuration not stated) gave a melting point of 77 to 79 °C.

As to `Cc1nnnn1-c1cccc(N)c1`, the melting point lay within 121 to 123 °C.

`O=C(O)C1(c2ccccc2)CCC1` showed a melting point of 105 to 107 °C.

On to `O=C(O)c1ccc(F)c(S(=O)(=O)Cl)c1`, for which the melting point is 138 to 140 °C.

For `COc1cccc(NC2=NC(C)(C)CS2)c1`, the melting point was 105 to 107 °C.

`COc1ccccc1C(=O)NC(C(=O)O)C(C)C` (configuration not stated) showed a melting point of 128 to 129 °C.

In the case of `O=C(O)CCc1nnc(-c2cc(F)ccc2Br)o1`, the melting point was in the range of 153 to 155 °C.

For the molecule `COc1ccc2nc(Cl)ccc2c1S(=O)(=O)Cl`, the melting point was in the range of 136 to 138 °C.

`COc1ccc(C#N)c(N)c1` registered a melting point of 91 to 93 °C.

Turning to `CNS(=O)(=O)c1ccc2c(c1)CCN2`, the melting point is 124 to 126 °C.

As to `NCC(=O)Nc1ccccc1[N+](=O)[O-]`, the melting point fell in the range of 81 to 83 °C.

Molecule `N#Cc1c(OCCCO)n[nH]c1N` displayed a melting point of 155 to 157 °C.

Molecule `Cn1cc(C#N)ccc1=O` returned a melting point of 159 to 161 °C.

For the molecule `CN(C)c1ccc(CCC(=O)O)cc1`, the melting point was in the range of 105 to 107 °C.

Take `Cc1oc2nc[nH]c(=O)c2c1C(=O)O`: the melting point was 149 to 151 °C.

For the molecule `Cc1cc(C)n2nc(S)nc2n1`, the melting point was in the range of 259 to 261 °C.

As for `Cc1cc(-c2nnc3ccccn23)ccc1N`, the melting point lay within 180 to 182 °C.

Consider `O=S(=O)(Cl)c1ccc2c(c1)CCCC2`, for which the melting point is 44 to 46 °C.

Molecule `Cc1[nH]c2ccccc2c1C(=O)CCl` displayed a melting point of 227 to 229 °C.

`Cc1nn(CC(F)(F)F)c(C)c1C(C)C(=O)O` (configuration not stated) showed a melting point of 130 to 132 °C.

In the case of `CCOC(=O)CCc1nnc(-c2ccc(Cl)cc2)o1`, the melting point was 100 to 102 °C.

`CC1Cc2ccccc2N1Cc1occc1C(=O)O` (configuration not stated): the melting point lay in the range of 186 to 188 °C.

Regarding `O=C(O)CSc1nccn1-c1ccc(C(F)(F)F)cc1`, the melting point was 119 to 121 °C.

In the case of `CCOCCS(=O)(=O)NCC(=O)O`, the melting point lay within 63 to 65 °C.

`CC(C)(C)Nc1nnc(S)s1` yielded a melting point of 164 to 166 °C.

As for `CN1CCCCC/C1=N\S(=O)(=O)c1cccc(N)c1`, the melting point was 172 to 174 °C.

Consider `CC(N)Cn1cnc2c(cnn2C)c1=O` (configuration not stated), for which the melting point is 148 to 150 °C.

As for `Nc1ccc(S(=O)(=O)NCc2ccco2)cc1`, the melting point was 180 to 182 °C.

In the case of `O=C(O)C1CCCN(C(=O)C2Cc3cc(Cl)ccc3O2)C1` (configuration not stated), the melting point lay within 159 to 161 °C.

`OC1(c2ccccc2)CCC1` had a melting point of 39 to 41 °C.

For `O=S1(=O)CCC(Cl)CC1`, the melting point was in the range of 129 to 131 °C.

For `O=c1ccc(C(F)(F)F)n[nH]1`, the melting point was in the range of 125 to 127 °C.

The molecule `O=C1CC(=O)CC2(CCCCC2)C1` yielded a melting point of 169 to 171 °C.

The molecule `COc1cc(F)c([N+](=O)[O-])cc1OC` displayed a melting point of 139 to 141 °C.

The molecule `O=Cc1cnn(C2CCS(=O)(=O)C2)c1` (configuration not stated) returned a melting point of 111 to 113 °C.

For `CCn1c(S)nnc1-c1ccccc1OC`, the melting point lay within 171 to 173 °C.

In turn, `CC(C)(C)C(Br)C(=O)O` (configuration not stated) gave a melting point of 62 to 64 °C.

Molecule `CN(C)c1ccnc(N)n1` had a melting point of 157 to 159 °C.

`CC1CCC(N)(C(=O)O)CC1` (configuration not stated) registered a melting point of 200 to 202 °C.

The molecule `Cc1cn2c(CC(=O)O)csc2n1` had a melting point of 211 to 213 °C.

For `Cc1ccccc1C1(C(=O)O)CCCCC1`, the melting point is 162 to 164 °C.

For the molecule `CCOc1ccc(S(=O)(=O)N(C)c2ccc(O)cc2)cc1`, the melting point was 129 to 133 °C.

With `O=C(CCl)NC1CCCCCCC1`, the melting point lay within 82 to 84 °C.

Molecule `CCCC(C(=O)O)N(C)C` (configuration not stated) came in with a melting point of 179 to 181 °C.

`O=C(O)c1cc(Cl)ccc1OCC(F)(F)F` registered a melting point of 121 to 123 °C.

`CNC(C)(C#N)Cn1cc(Br)cn1` (configuration not stated) displayed a melting point of 33 to 35 °C.

In turn, `O=C(O)c1n[nH]c(=O)c2ccccc12` returned a melting point of 230 to 232 °C.

Regarding `CCc1cc(=O)[nH]c(-c2cccnc2)n1`, the melting point was in the range of 151 to 153 °C.

`Cc1nn(C)c(-n2cncn2)c1N` showed a melting point of 96 to 98 °C.

`O=C(O)C(Oc1cc(Cl)ccc1Cl)c1ccccc1` (configuration not stated) gave a melting point of 144 to 146 °C.

With `CSc1nc2ncccc2o1`, the melting point lay within 62 to 64 °C.

For `O=C(O)c1cnn(-c2ccccc2)c1C1CC1`, the melting point lay in the range of 173 to 175 °C.

The molecule `Cc1cc2cc[nH]c(=O)c2n1C` registered a melting point of 224 to 226 °C.

As for `Nc1cccnc1Nc1ccc2c(c1)C(=O)NC2=O`, the melting point was in the range of 269 to 271 °C.

Molecule `O=C(O)c1ccc(NS(=O)(=O)C(F)(F)F)cc1` registered a melting point of 226 to 228 °C.

`Cc1cnn(-c2ccc(S(=O)(=O)Cl)cc2F)c1` gave a melting point of 99 to 101 °C.

As to `CC1(C)Nc2ccccc2NC1=O`, the melting point is 179 to 181 °C.

For the molecule `N#Cc1cccc(NC(=O)OCC(F)(F)F)c1`, the melting point is 133 to 135 °C.

As to `CC(C)(C)C(=O)Nc1nc(CC(=O)O)cs1`, the melting point lay in the range of 222 to 224 °C.

For the molecule `O=C1NC(=O)C2(CCS(=O)(=O)CC2)N1`, the melting point was 327 to 329 °C.

As for `CCC1=C(C(=O)O)Cc2ccccc2O1`, the melting point was 223 to 225 °C.
